Source: patent publication US8017612B2, “Piperazine compound and use thereof as a HCV polymerase inhibitor” (priority 2006, dated 2011)

How the values were obtained:
[1] = target: T1, HCV polymerase (NS5B) type 1b (Hepatitis C virus genotype 1b, UniProt P26663); test: Assay of enzyme (HCV polymerase) inhibitory activity, type 1b enzyme; type: biochemical, HCV BK strain (type 1b)
T1 construct: a region encoding NS5B (J Virol 1991 March, 65(3), 1105-13, 544 amino acids after deletion of 47 amino acids on the C-terminal); 6xHis (C); made in house; host or cells: Escherichia coli
From the text: (§1) The evaluation of the HCV polymerase inhibitory activity of the compound of the present invention is explained in the following. This polymerase is an enzyme coded for by the non-structural protein region called NS5B on the genome RNA of HCV.
(§2) i) Preparation of Enzyme (HCV Polymerase)
(§3) Using, as a template, a cDNA clone corresponding to the full length genome RNA of HCV BK strain (type 1b) obtained from the blood of a patient with hepatitis C, a region encoding NS5B (J Virol 1991 March, 65(3), 1105-13, 544 amino acids after deletion of 47 amino acids on the C-terminal) was amplified by PCR. The objective gene was prepared by adding a 6 His tag {base pair encoding 6 continuous histidine (His)} to the 3′ end thereof and transformed to Escherichia coli. The Escherichia coli capable of producing the objective protein was cultured. The obtained cells were suspended in a buffer solution and crushed in a microfluidizer. The supernatant was obtained by centrifugation and applied to various column chromatographys {mono-S, Sephacryl S-200 (Pharmacia)}, inclusive of metal chelate chromatography, to give a standard enzyme product.
(§4) ii) Synthesis of Substrate RNA
(§5) Using a synthetic primer designed based on the sequence of HCV genomic 3′ untranslated region, a DNA fragment (148 bp) containing polyU and 3′X sequence was entirely synthesized and cloned into plasmid pBluescript SK II(+) (Stratagene). The cDNA encoding full length NS5B, which was prepared in i) above, was digested with restriction enzyme KpnI to give a cDNA fragment containing the nucleotide sequence of from the restriction enzyme cleavage site to the termination codon. This cDNA fragment was inserted into the upstream of 3′ untranslated region of the DNA in pBluescript SK II(+) and ligated. The about 450 bp inserted DNA sequence was used as a template in the preparation of substrate RNA. This plasmid was cleaved immediately after the 3′X sequence, linearized and purified by phenol-chloroform treatment and ethanol precipitation to give DNA.
(§6) RNA was synthesized (37° C., 4 hr) by run-off method using this purified DNA as a template, a promoter of pBluescript SK II(+), MEGAscript RNA synthesis kit (Ambion) and T7 RNA polymerase. DNase I was added and the mixture was incubated for 1 hr. The template DNA was removed by decomposition to give a crude RNA product. This crude product was treated with phenol-chloroform and purified by ethanol precipitation to give the objective substrate RNA.
(§7) This RNA was applied to urea denaturation polyacrylamide gel electrophoresis to confirm the quality thereof and preserved at −80° C.
(§8) iii) Assay of Enzyme (HCV Polymerase) inhibitory activity
(§9) A test substance (compound of the present invention) and a reaction mixture (30 μl) having the following composition were reacted at 25° C. for 60 min.
(§10) 10% Trichloroacetic acid and 1% sodium pyrophosphate solution (150 μl) at 4° C. was added to this reaction mixture to stop the reaction. The reaction mixture was left standing at 4° C. for 15 min to insolubilize RNA. This RNA was trapped on a glass filter (PerkinElmer, GF/B) upon filtration by suction. This filter was washed with a solution containing 1% trichloroacetic acid and 0.1% sodium pyrophosphate, washed with 90% ethanol and dried. A liquid scintillation cocktail (PerkinElmer) was added and the radioactivity of RNA synthesized by the enzyme reaction was measured on a liquid scintillation counter.
The HCV polymerase inhibitory activity (IC50) of the compound of the present invention was calculated from the values of radioactivity of the enzyme reaction with and without the test substance.
Reaction mixture: HCV polymerase (type 1b 0.5 μg/ml or type 1a 1.5 μg/m) obtained in i), substrate RNA (5 μg/ml) obtained in ii), ATP (50 μM), GTP (50 μM), CTP (50 μM), UTP (2 μM), [5,6-^3H]UTP (30-60 Ci/mmol (Amersham Biosciences), 1 μCi) 20 mM Tris-HCl (pH 7.5), EDTA (1 mM), MgCl2 (5 mM), NaCl (50 mM), DTT (1 mM), BSA (0.01%)

[2] = target: T2, HCV polymerase (NS5B) type 1a (Hepatitis C virus genotype 1a, UniProt P26664); test: Assay of enzyme (HCV polymerase) inhibitory activity, type 1a enzyme; type: biochemical, HCV type 1a (cloned from the blood of patients)
T2 construct: made in house; host or cells: Escherichia coli (by the 'similar method' of the 1b enzyme)
From the text: as §1, §2, §3
Standard enzyme products for type 1a (cloned from the blood of patients) were also obtained by a similar method.
as §4, §5, §6, §7, §8, §9, §10
The HCV polymerase inhibitory activity (IC50) of the compound of the present invention was calculated from the values of radioactivity of the enzyme reaction with and without the test substance. […]

[3] = HCV polymerase inhibitory activity (IC50), 1b, type 1b enzyme 0.5 μg/ml, 25° C., 60 min
[4] = HCV polymerase inhibitory activity (IC50), 1a, type 1a enzyme 1.5 μg/ml, 25° C., 60 min
[5] = HCV polymerase inhibitory activity IC50, 1b, type 1b enzyme
[6] = HCV polymerase inhibitory activity IC50, 1a, type 1a enzyme

SMILES | IC50 [1, 3] [nM] | IC50 [2, 4] [nM] | IC50 [1, 5] [nM] | IC50 [2, 6] [nM]
CC(C)c1ccc(S(=O)(=O)N2CCN(C=O)CC2C(=O)NCc2ccc(C(F)(F)F)cc2)cc1 (centres unmarked) [Example 63, 4-formyl-1-(4-isopropyl-benzenesulfonyl)-piperazine-2-carboxylic acid 4-trifluoromethyl-benzylamide] | > 1000 | > 1000 |  | 
CCOC(=O)Cn1nnc(CC(=O)N2CCN(S(=O)(=O)c3ccc(OC(F)(F)F)cc3)[C@@H](C(=O)NCc3ccc(C(F)(F)CC)cc3)C2)n1 [Example 532, (5-{2-[(R)-3-[4-(1,1-difluoro-propyl)-benzylcarbamoyl]-4-(4-trifluoromethoxy-benzenesulfonyl)-piperazin-1-yl]-2-oxo-ethyl}-tetrazol-2-yl)-acetic acid ethyl ester] | < 100 | < 100 |  | 
CC(=O)N1CCN(S(=O)(=O)c2ccc(C(C)C)cc2)C(C(=O)NCc2ccc(C(F)(F)F)cc2)C1 (centres unmarked) [Example 1115, 4-acetyl-1-(4-isopropyl-benzenesulfonyl)-piperazine-2-carboxylic acid 4-trifluoromethyl-benzylamide] |  |  | > 1000 | 100 to 1000
CC(=O)N1CCN(S(=O)(=O)c2ccc(OC(F)(F)F)cc2)[C@@H](C(=O)NCC2CCN(C(=O)OC(C)(C)C)CC2)C1 [Example 644, 4-({[(R)-4-acetyl-1-(4-trifluoromethoxy-benzenesulfonyl)-piperazine-2-carbonyl]-amino}-methyl)-piperidine-1-carboxylic acid tert-butyl ester] | > 1000 | > 1000 |  | 
O=C(NCc1ccc(OC(F)(F)F)cc1)[C@H]1CN(c2nc3cn[nH]c(=O)c3s2)CCN1S(=O)(=O)c1ccc(F)cc1 [Example 864, (R)-1-(4-fluoro-benzenesulfonyl)-4-(7-oxo-6,7-dihydro-thiazolo[4,5-d]pyridazin-2-yl)-piperazine-2-carboxylic acid 4-trifluoromethoxy-benzylamide] |  |  | < 100 | 100 to 1000
O=C(NCc1ccc(OC(F)(F)F)cc1)[C@H]1CN(c2nc3nc(C4(CO)CC4)ncc3s2)CCN1S(=O)(=O)c1ccc(OC(F)(F)F)cc1 [Example 1077, (R)-4-[5-(1-hydroxymethyl-cyclopropyl)-thiazolo[4,5-d]pyrimidin-2-yl]-1-(4-trifluoromethoxy-benzenesulfonyl)-piperazine-2-carboxylic acid 4-trifluoromethoxy-benzylamide] |  |  | < 100 | < 100
Cc1cc(=O)nc2sc(N3CCN(S(=O)(=O)c4ccc(OC(F)(F)F)cc4)[C@@H](C(=O)NCc4ccc(OC(F)(F)F)cc4)C3)nn12 [Example 1019, (R)-4-(5-methyl-7-oxo-7H-[1,3,4]thiadiazolo[3,2-a]pyrimidin-2-yl)-1-(4-trifluoromethoxy-benzenesulfonyl)-piperazine-2-carboxylic acid 4-trifluoromethoxy-benzylamide] |  |  | < 100 | < 100
CCOc1ccc(S(=O)(=O)N2CCN(C(C)=O)C[C@@H]2C(=O)NCc2ccc(C(C)C)cc2)cc1 [Example 192, (R)-4-acetyl-1-(4-ethoxy-benzenesulfonyl)-piperazine-2-carboxylic acid 4-isopropyl-benzylamide] | 100 to 1000 | 100 to 1000 |  | 
CCC(F)(F)c1ccc(CNC(=O)[C@H]2CN(c3nc(NC(C)=O)ns3)CCN2S(=O)(=O)c2ccc(OC(F)(F)F)cc2)cc1 [Example 596, (R)-4-(3-acetylamino-[1,2,4]thiadiazol-5-yl)-1-(4-trifluoromethoxy-benzenesulfonyl)-piperazine-2-carboxylic acid 4-(1,1-difluoro-propyl)-benzylamide] | < 100 | < 100 |  | 
O=C(NCc1ccc(OC(F)(F)F)cc1)[C@H]1CN(c2nc3cn[nH]c(=O)c3s2)CCN1S(=O)(=O)c1ccc(Cl)s1 [Example 850, (R)-1-(5-chloro-thiophene-2-sulfonyl)-4-(7-oxo-6,7-dihydro-thiazolo[4,5-d]pyridazin-2-yl)-piperazine-2-carboxylic acid 4-trifluoromethoxy-benzylamide] |  |  | < 100 | < 100
CCCc1ccc(CNC(=O)[C@H]2CN(c3cnc(C(=O)O)cn3)CCN2S(=O)(=O)c2ccc(OC(F)(F)F)cc2)c(C)c1 [Example 432, (R)-3-(2-methyl-4-propyl-benzylcarbamoyl)-4-(4-trifluoromethoxy-benzenesulfonyl)-3,4,5,6-tetrahydro-2H-[1,2′]bipyrazinyl-5′-carboxylic acid] | < 100 | < 100 |  | 
CCC(F)(F)c1ccc(CNC(=O)[C@H]2CN(c3nc4nn[nH]c(=O)c4s3)CCN2S(=O)(=O)c2ccc(OC(F)(F)F)cc2)cc1 [Example 640, (R)-4-(4-oxo-3,4-dihydro-thiazolo[4,5-d][1,2,3]triazin-6-yl)-1-(4-trifluoromethoxy-benzenesulfonyl)-piperazine-2-carboxylic acid 4-(1,1-difluoro-propyl)-benzylamide] | < 100 | < 100 |  | 
O=C(O)c1cncc2ncc(N3CCN(S(=O)(=O)c4ccc(OC(F)(F)F)cc4)[C@@H](C(=O)NCc4ccc(OC(F)(F)F)cc4)C3)nc12 [Example 806, 2-[(R)-4-(4-trifluoromethoxy-benzenesulfonyl)-3-(4-trifluoromethoxy-benzylcarbamoyl)-piperazin-1-yl]-pyrido[3,4-b]pyrazine-8-carboxylic acid] |  |  | < 100 | < 100
CCCc1ccc(S(=O)(=O)N2CCN(c3nc(C)c(C(=O)OC(C)(C)C)s3)C[C@@H]2C(=O)NCc2ccc(C(C)C)cc2C)cc1 [Example 330, 2-[(R)-3-(4-isopropyl-2-methyl-benzylcarbamoyl)-4-(4-propyl-benzenesulfonyl)-piperazin-1-yl]-4-methyl-thiazole-5-carboxylic acid tert-butyl ester] | 100 to 1000 | > 1000 |  | 
CCC(F)(F)c1ccc(CNC(=O)[C@H]2CN(C(=O)Nc3nnc(C(=O)N4CCOCC4)s3)CCN2S(=O)(=O)c2ccc(OC(F)(F)F)cc2)cc1 [Example 497, (R)-4-(4-trifluoromethoxy-benzenesulfonyl)-piperazine-1,3-dicarboxylic acid 3-[4-(1,1-difluoro-propyl)-benzylamide] 1-{[5-(morpholine-4-carbonyl)-[1,3,4]thiadiazol-2-yl]-amide}] | > 1000 | > 1000 |  | 
COC(=O)CCCC(=O)N1CCN(S(=O)(=O)c2ccc(C(F)(F)F)cc2)[C@@H](C(=O)NCc2ccc(C(C)C)cc2)C1 [Example 174, 5-[(R)-3-(4-isopropyl-benzylcarbamoyl)-4-(4-trifluoromethyl-benzenesulfonyl)-piperazin-1-yl]-5-oxo-pentanoic acid methyl ester] | 100 to 1000 | 100 to 1000 |  | 
